Results taken from patent US7507727B2, “Substituted quinobenzoxazine analogs and methods of using thereof” (Cylene Pharmaceuticals, Inc., priority 2003, dated 2009).

Columns and labels:
p53 (total) = p53 (total) ELISA in HCT-116 cells; assay type: cell-based; conditions: 24 hr, 1-5 uM
Experimental: (§1) The protocol for this assay is described as follows. On Day 1, cells were seeded at 2×10^6 cells/10 cm dish/10 mL medium. On day two, cells were treated as follows: control=0.05% DMSO (5 μl DMSO stock/10 ml medium); 1 μM CX3543 (1 μl Stock (10 mM)/10 ml medium); 2 μM CX3543 (2 μl Stock (10 mM)/10 ml medium); 3 μM CX3543 (3 μl Stock (10 mM)/10 ml medium); 4 μM CX3543 (4 μl Stock (10 mM)/10 ml medium) and 5 μM CX3543 (5 μl Stock (10 mM)/10 ml medium).
(§2) On Day 3, cells were harvested and attached and floating cells were collected. Cells were washed twice with PBS, counted and collected at 4×10^6 cells/sample. The cell pellet was frozen at −80° C. until further use. […]
(§3) Test Procedure. […] After washing, the plate is inverted and tapped dry on absorbance tissue. […]
(§4) Wash wells with 400 μl working wash buffer four times. […] After washing, the plate is inverted and tapped try on absorbance tissue. […] After washing, the plate is inverted and tapped try on absorbance tissue. […] Read the plate at A450 nm by setting chromogen blank (=100 μl TMB+100 μl Stop soln) as blank. Read absorbance within 2 hours of assay completion.

[1] = system: phosphorylated p53 [pS15]; assay: Phosphorylated p53 ELISA in HCT-116 cells; assay type: cell-based; conditions: 24 hr, 1-5 uM
Experimental: as §1, §2, §3, §4

CN1CCCC1CCNC(=O)c1cn2c3c(c(N4CCC(c5cnccn5)C4)c(F)cc3c1=O)Oc1cc3ccccc3cc1-2 (centres unmarked) [CX-3543]
population of the protein p53 (total) (p53 (total)): enhanced | population of phosphorylated p53 [1]: enhanced
